Experiment [1] has as its target T1, GLP-1R (Homo sapiens, UniProt P43220). Nature of the experiment: GLP-1R Activation - cAMP Assay 1 (cAMP increase in CHO cells stably expressing GLP-1R). The format is cell-based. The settings on record: 10 point dose response, 30 minutes incubation at 37° C., cAMP Gs Dynamic Kit. The procedure: GLP-1R Activation—cAMP Assay 1
GLP-1R activation by a compound of the present disclosure was quantified by measuring cAMP increase in CHO cells stably expressing GLP-1R (MultiSpan product #C1267-1a). The cells were harvested and plated in growth medium (DMEM/F-12 (Corning product #10-090-CV) supplemented with 10% FBS (HyClone product #SH30071-03), penicillin/streptomycin (Corning product #30-002CI) and 10 µg/ml puromycin (Gibco product #A11138-03)) at 1,000 cells/well in a 384-well plate (Greiner product #781080). The cells were then incubated overnight at 37° C., 5% CO2. The next day, the medium was removed and the cells were washed with DPBS (Corning product #21-031-CM) before adding the assay medium (HBSS, Corning product #21-023-CV) with 20 mM Hepes (Gibco product #15630-080) and 0. 1% BSA (Rockland Immunochemicals product #BSA-1000)). Following the medium change, the cells were incubated for 1 hour at 37° C., 5% CO2. The tested GLP-1 compound was added to the cells in a 10 point dose response followed by a 30 minutes incubation at 37° C., 5% CO2. cAMP concentration increase was then detected using Cisbio's cAMP Gs Dynamic Kit (product #62AM4PEC) according to the manufacturer's protocol. The response was plotted against the log of the agonist concentration and fitted to a sigmoidal equation to determine the EC50.

Experiment [2] addresses T1, GLP-1R. Briefly: GLP-1R Activation - cAMP Assay 2 (cAMP increase in CHO cells stably expressing GLP-1R, pre-spotted agonists). The format is cell-based. The settings on record: assay buffer or 100% Human Plasma (not given), 30 minutes at 37° C. The procedure: GLP-1R Activation—cAMP Assay 2
GLP-1R activation by small molecule agonists is quantified by measuring cAMP increase in CHO cells stably expressing GLP-1R (MultiSpan product #C1267-1a). 50 nL of agonists are pre-spotted in a 10 point dose response onto 384-well plate (Corning product #CL3826) using the Labcyte Echo System. The cells are harvested and plated in assay buffer (HBSS (Corning product #21-023-CV) with 20 mM Hepes (Gibco product #15630-080) and 0.1% BSA (Rockland Immunochemicals product #BSA-1000)) or 100% Human Plasma (Innovative Research product #50-643-396) at 1,000 cells/well, 10 µL/well, onto the pre-spotted plates. The cells are then incubated for 30 minutes at 37° C., 5% CO2. cAMP concentration increase is then detected using Cisbio's cAMP Gs Dynamic Kit (product #62AM4PEC) according to the manufacturer's protocol. The response is plotted against the log of the agonist concentration and fitted to a sigmoidal equation to determine the EC50.

What is called EC50 is the concentration at which the effect is half-maximal. The low end stands for greater potency, the high end for weaker potency.

T1 sequence (P43220 24-463): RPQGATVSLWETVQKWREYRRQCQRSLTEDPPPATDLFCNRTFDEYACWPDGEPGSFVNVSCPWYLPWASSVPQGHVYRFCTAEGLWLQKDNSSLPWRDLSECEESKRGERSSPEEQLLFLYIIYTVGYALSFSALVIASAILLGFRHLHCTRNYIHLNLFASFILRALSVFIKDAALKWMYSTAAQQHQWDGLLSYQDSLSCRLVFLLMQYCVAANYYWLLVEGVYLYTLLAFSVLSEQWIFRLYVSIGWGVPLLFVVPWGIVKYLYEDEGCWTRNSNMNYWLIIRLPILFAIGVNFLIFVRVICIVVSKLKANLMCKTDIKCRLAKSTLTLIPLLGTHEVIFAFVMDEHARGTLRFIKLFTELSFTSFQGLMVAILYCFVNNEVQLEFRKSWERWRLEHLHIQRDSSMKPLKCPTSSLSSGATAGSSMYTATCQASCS

`COCCn1c(C2CC23CCN(c2cccc(OCc4ccc(C#N)cc4F)n2)CC3)nc2c(F)cc(C(=O)O)cc21` (stereo not shown) [Example 7, 2-[6-[6-[(4-cyano-2-fluoro-phenyl)methoxy]-2-pyridyl]-6-azaspiro[2.5]octan-2-yl]-7-fluoro-3-(2-methoxyethyl)benzimidazole-5-carboxylic Acid]: the EC50 was 3.8 nM in experiment [1] and 10.3 nM in experiment [2].
Take `COCCn1c(CC2CCN(c3cccc(OCc4ccc(C#N)cc4F)n3)CC2)nc2c(F)cc(C(=O)O)cc21` [Example 8]: the figures for the EC50 in experiment [1] and in experiment [2] were 5.3 nM and 13.2 nM, respectively.
Consider `COCCn1c(CN2CCC(c3cccc(OCc4ccc(C#N)cc4F)n3)CC2)nc2c(Cl)cc(C(=O)O)cc21` [Example 9], for which the EC50 is 6.6 nM in experiment [1] and 2.6 nM in experiment [2].
As to `COCCn1c(CN2CCC(c3cccc(OCc4ccc(C#N)cc4F)n3)CC2)nc2c(F)c(F)c(C(=O)O)cc21` [Example 10, 2-((4-(6-((4-cyano-2-fluorobenzyl)oxy)pyridin-2-yl)piperidin-1-yl)methyl)-4,5-difluoro-1-(2-methoxyethyl)-1H-benzo[d]imidazole-6-carboxylic Acid], the EC50 in experiment [1] turned out to be 18.2 nM; in experiment [2] it was 11.3 nM.
Regarding `CC(C)(C#N)Cn1c(CN2CCC(c3cccc(OCc4ccc(C#N)cc4F)n3)CC2)nc2c(F)cc(C(=O)O)cc21` [Example 15], the EC50 in experiment [1] is 0.24 nM.
Turning to `COCCn1c(CN2CCC(c3cccc(OCc4ccc(C#N)cc4F)n3)CC2)nc2c(C#N)cc(C(=O)O)cc21` [Example 25, 4-cyano-2-((4-(6-((4-cyano-2-fluorobenzyl)oxy)pyridin-2-yl)piperidin-1-yl)methyl)-1-(2-methoxyethyl)-1H-benzo[d]imidazole-6-carboxylic Acid], the EC50 in experiment [1] was found to be 3.5 nM; in experiment [2], 7.1 nM.
The matching figures for `COCCn1c(CN2CCC(c3cccc(OCc4ccc(C#N)cc4F)n3)CC2)nc2c(C3CC3)cc(C(=O)O)cc21` [Example 26, 2-((4-(6-((4-cyano-2-fluorobenzyl)oxy)pyridin-2-yl)piperidin-1-yl)methyl)-4-cyclopropyl-1-(2-methoxyethyl)-1H-benzo[d]imidazole-6-carboxylic Acid]: 53.9 nM and 47.8 nM.
`COCCn1c(CN2CCC(c3cccc(OCc4ccc(C#N)cc4F)n3)CC2)nc2c(COC)cc(C(=O)O)cc21` [Example 27, 2-((4-(6-((4-cyano-2-fluorobenzyl)oxy)pyridin-2-yl)piperidin-1-yl)methyl)-1-(2-methoxyethyl)-4-(methoxymethyl)-1H-benzo[d]imidazole-6-carboxylic Acid]: the midpoint of the response in experiment [1], the EC50, lay at 14.6 nM.
On the same count and under the same terms, to `COCCn1c(CN2CCC(c3cccc(OCc4ccc(C#N)cc4F)n3)CC2)nc2c(C)cc(C(=O)O)cc21` [Example 28, 2-((4-(6-((4-cyano-2-fluorobenzyl)oxy)pyridin-2-yl)piperidin-1-yl)methyl)-1-(2-methoxyethyl)-4-methyl-1H-benzo[d]imidazole-6-carboxylic Acid] belongs 21 nM; to `COCCn1c(CN2CCC(c3cccc(OCc4ccc(C#N)cc4F)n3)CC2)nc2c(-c3cnn(C)c3)cc(C(=O)O)cc21` [Example 29, 2-((4-(6-((4-cyano-2-fluorobenzyl)oxy)pyridin-2-yl)piperidin-1-yl)methyl)-1-(2-methoxyethyl)-4-(1-methyl-1H-pyrazol-4-yl)-1H-benzo[d]imidazole-6-carboxylic Acid], 104 nM.

The values above are taken from US11851419B2, “GLP-1R modulating compounds” (Gilead Sciences, Inc., priority 2020, dated 2023).
